# Data as given in patent US11155517B2, “4-substituted phenylamine derivatives and their use to protect crops by fighting undesired phytopathogenic micoorganisms” (PI INDUSTRIES LTD., priority 2016, dated 2021).
# Columns and labels:
# [1] = test system: Septoria lycopersici; assay: Septoria lycopersici (leaf spot of tomato) in vitro test, radial growth on Potato Dextrose Agar; format: cell-based; settings: 168 h, seven days, 25° C., read-out: % control compared to the untreated check (radial growth)
# [2] = test system: Botrytis cinera; assay: Greenhouse Botrytis cinera test in tomato, preventive; format: in vivo; settings: 24 h, plants sprayed one day before inoculation, read-out: Efficacy (% control), disease severity vs untreated check
# [3] = test system: Rhizoctonia solani; assay: Rhizoctonia solani (rice sheath blight/potato black scurf) in vitro test, radial growth on Potato Dextrose Agar; format: cell-based; settings: 168 h, 300 ppm, seven days, 25° C., read-out: % control compared to the untreated check (radial growth)
# [4] = test system: Colletotrichum capsici; assay: Colletotrichum capsici (anthracnose) in vitro test, radial growth on Potato Dextrose Agar; format: cell-based; settings: Colletotrichum truncatum, 168 h; 300 ppm; seven days, 25° C.; read-out: % control compared to the untreated check (radial growth)
# [5] = test system: Botrytis cinerea; assay: Botrytis cinerea (gray mold) in vitro test, radial growth on Potato Dextrose Agar; format: cell-based; settings: 168 h, 300 ppm, seven days, 22° C., read-out: % (control) compared to the untreated check (radial growth)
# [6] = test system: Alternaria solani; assay: Greenhouse Alternaria solani test in tomato, preventive; format: in vivo; settings: 24 h, tomato plants sprayed one day before inoculation, read-out: Efficacy (% control), disease severity vs untreated check
# Experimental: Compounds were dissolved in 2% DMSO/Acetone & then mixed with water to calibrated spray volume of 50 ml. This 50 ml spray solution was poured into the spray bottles for further applications. To test the preventive activity of compounds, healthy young Tomato plants raised in the greenhouse were sprayed with active compound preparation at the stated application rates inside the spray cabinets using hallowcone nozzles. One day after treatment, the plants were inoculated with spore suspension (2% Malt) containing 0.24×10^6 Alternaria solani inoculum. The inoculated plants were then kept in greenhouse chamber at 22-24° C. temperature and 90-95% relative humidity for disease expression. […] Efficacy (% control) of the compounds was calculated by comparing the disease rating in the treatment with untreated control. The sprayed plants were also assessed for compound's phytotoxic effects by recording symptoms like necrosis, chlorosis and stunting.
# [7] = test system: Fusarium culmorum; assay: Fusarium culmorum (foot rot of cereals) in vitro test, radial growth on Potato Dextrose Agar; format: cell-based; settings: Fusarium culmorum, 168 h, read-out: % control compared to the untreated check (radial growth)
# [8] = test system: Fusarium culmorum; assay: Greenhouse Fusarium culmorum test in wheat, preventive; format: in vivo; settings: 24 h, read-out: Efficacy (% control), disease severity vs untreated check
# Experimental: Compounds were dissolved in 2% DMSO/Acetone & then mixed with water to calibrated spray volume of 50 ml. This 50 ml spray solution was poured into the spray bottles for further applications.
# To test the preventive activity of compounds, healthy young wheat plants raised in the greenhouse were sprayed with active compound preparation at the stated application rates inside the spray cabinets using hallowcone nozzles. One day after treatment, the plants were inoculated with spore suspension (2% Malt) containing 2×10^6 Fusarium culmorum inoculum. The inoculated plants were then kept in greenhouse chamber at 24° C. temperature and 80-90% relative humidity for disease expression.
# A visual assessment of compound's performance was carried by rating the disease severity (0-100% scale) on treated plants on 3, 7, 10 and 15 days after application. Efficacy (% control) of the compounds was calculated by comparing the disease rating in the treatment with untreated control. The sprayed plants were also assessed for compound's phytotoxic effects by recording symptoms like necrosis, chlorosis and stunting.
# [9] = test system: Pyricularia oryzae; assay: microbe, parasite or virus in culture; format: cell-based; settings: 168 h, read-out: % control compared to the untreated check (radial growth)
# [10] = test system: Alternaria solani; assay: Alternaria solani (early blight of tomato/potato) in vitro test, radial growth on Potato Dextrose Agar; format: cell-based; settings: 168 h, 300 ppm, seven days, 25° C., read-out: % control compared to the untreated check (radial growth)
# [11] = test system: Pyricularia oryzae; assay: whole plant or invertebrate; format: in vivo; settings: 24 h, read-out: Efficacy (% control), disease severity vs untreated check
Structure (SMILES),inhibition of growth at 300 ppm [1] [%],pest or weed control at 500 ppm [2] [%],inhibition of growth at 300 ppm [3] [%],inhibition of growth at 300 ppm [4] [%],inhibition of growth at 300 ppm [5] [%],pest or weed control at 500 ppm [6] [%],inhibition of growth at 300 ppm [7] [%],pest or weed control at 500 ppm [8] [%],inhibition of growth at 300 ppm [9] [%],inhibition of growth at 300 ppm [10] [%],pest or weed control at 500 ppm [11] [%]
"CCN(C)C=Nc1cc(C)c(Cc2ccccc2SC)cc1C [Compound 23, N′-(2,5-dimethyl-4-(2-(methylthio)benzyl)phenyl)-N-ethyl-N-methylformimidamide]",> 70,70 to 100,> 80,> 80,> 80,70 to 100,75,70 to 100,> 75,> 75,
"CCN(C)C=Nc1cc(C)c(Cc2cc(C)ccc2C)cc1C [Compound 26, N′-(4-(2,5-dimethylbenzyl)-2,5-dimethylphenyl)-N-ethyl-N-methylformimidamide]",> 70,,> 80,> 80,> 80,,75,,> 75,> 75,70 to 100
"CCN(C)C=Nc1cc(C)c(Cc2cccc(Br)c2F)cc1C [Compound 27, N′-(4-(3-bromo-2-fluorobenzyl)-2,5-dimethylphenyl)-N-ethyl-N-methylformimidamide]",> 70,70 to 100,> 80,> 80,> 80,70 to 100,75,,> 75,> 75,
"CCN(C)C=Nc1cc(C)c(Cc2cccc(F)c2)cc1C [Compound 29, N-ethyl-N′-(4-(3-fluorobenzyl)-2,5-dimethylphenyl)-N-methylformimidamide]",> 70,70 to 100,> 80,> 80,> 80,70 to 100,75,,> 75,> 75,
"CCN(C)C=Nc1cc(C)c(Cc2ccccc2C)cc1C [Compound 32, N′-(2,5-dimethyl-4-(2-methylbenzyl)phenyl)-N-ethyl-N-methylformimidamide]",> 70,70 to 100,> 80,> 80,> 80,70 to 100,75,70 to 100,> 75,> 75,
"Cc1cc(N=CN2CCCCC2)c(C)cc1Cc1ccc(F)c(Cl)c1 [Compound 35, N-(4-(3-chloro-4-fluorobenzyl)-2,5-dimethylphenyl)-1-(piperidin-1-yl)methanimine]",> 70,,> 80,> 80,> 80,70 to 100,,70 to 100,> 75,> 75,
"CNC=Nc1cc(C)c(Cc2cccc(Br)c2F)cc1C [Compound 41, N′-(4-(3-bromo-2-fluorobenzyl)-2,5-dimethylphenyl)-N-methylformimidamide]",> 70,,> 80,> 80,> 80,70 to 100,75,70 to 100,> 75,> 75,
"CNC=Nc1cc(C)c(Cc2cccc(F)c2)cc1Cl [Compound 42, N′-(2-chloro-4-(3-fluorobenzyl)-5-methylphenyl)-N-methylformimidamide]",> 70,,> 80,> 80,> 80,70 to 100,75,70 to 100,> 75,> 75,
"CCN(C)C=Nc1cc(C)c(Cc2ccc(C)cc2)cc1Cl [Compound 44, N′-(2-chloro-5-methyl-4-(4-methylbenzyl)phenyl)-N-ethyl-N-methylformimidamide]",> 70,,> 80,> 80,> 80,,75,,> 75,> 75,70 to 100
"CCN(C)C=Nc1cc(C)c(Cc2cccc(OC(F)(F)F)c2)cc1C [Compound 51, N′-(2,5-dimethyl-4-(3-(trifluoromethoxy)benzyl)phenyl)-N-ethyl-N-methylformimidamide]",> 70,,> 80,> 80,> 80,,75,,> 75,> 75,70 to 100
"Cc1cc(N=CN2CCOCC2)c(C)cc1Cc1ccccc1Cl [Compound 63, N-(4-(2-chlorobenzyl)-2,5-dimethylphenyl)-1-morpholinomethanimine]",> 70,,> 80,> 80,> 80,,75,,> 75,> 75,70 to 100
"CCN(C)C=Nc1cc(C)c(Cc2cccc(C)c2C)cc1C [Compound 112, N′-(4-(2,3-dimethylbenzyl)-2,5-dimethylphenyl)-N-ethyl-N-methylformimidamide]",> 70,,> 80,> 80,,,75,,> 75,> 75,70 to 100
"CCN(C)C=Nc1cc(C)c(Cc2ccc(Cl)c(C)c2)cc1Cl [Compound 120, N′-(2-chloro-4-(4-chloro-3-methylbenzyl)-5-methylphenyl)-N-ethyl-N-methylformimidamide]",,,> 80,> 80,> 80,,75,,> 75,> 75,70 to 100
"CCN(C)C=Nc1cc(C)c(Cc2cc(F)cc(Cl)c2)cc1C [Compound 135, N′-(4-(3-chloro-5-fluorobenzyl)-2,5-dimethylphenyl)-N-ethyl-N-methylformimidamide]",> 70,,> 80,> 80,> 80,,,,> 75,> 75,70 to 100
"CCN(C)C=Nc1cc(Cl)c(Cc2cccc(F)c2)cc1Cl [Compound 148, N′-(2,5-dichloro-4-(3-fluorobenzyl)phenyl)-N-ethyl-N-methylformimidamide]",,,,,,,,,> 75,> 75,70 to 100
"CCN(C)C=Nc1cc(C)c(Cc2cc(Cl)ccc2Cl)cc1C [Compound 160, N′-(4-(2,5-dichlorobenzyl)-2,5-dimethylphenyl)-N-ethyl-N-methylformimidamide]",> 70,,> 80,> 80,> 80,70 to 100,75,70 to 100,> 75,> 75,
